Read-outs that look alike come from different tables or passages of the source.
Target: T1, hTG2 (Homo sapiens, UniProt P21980)
T1 sequence (P21980 1-687): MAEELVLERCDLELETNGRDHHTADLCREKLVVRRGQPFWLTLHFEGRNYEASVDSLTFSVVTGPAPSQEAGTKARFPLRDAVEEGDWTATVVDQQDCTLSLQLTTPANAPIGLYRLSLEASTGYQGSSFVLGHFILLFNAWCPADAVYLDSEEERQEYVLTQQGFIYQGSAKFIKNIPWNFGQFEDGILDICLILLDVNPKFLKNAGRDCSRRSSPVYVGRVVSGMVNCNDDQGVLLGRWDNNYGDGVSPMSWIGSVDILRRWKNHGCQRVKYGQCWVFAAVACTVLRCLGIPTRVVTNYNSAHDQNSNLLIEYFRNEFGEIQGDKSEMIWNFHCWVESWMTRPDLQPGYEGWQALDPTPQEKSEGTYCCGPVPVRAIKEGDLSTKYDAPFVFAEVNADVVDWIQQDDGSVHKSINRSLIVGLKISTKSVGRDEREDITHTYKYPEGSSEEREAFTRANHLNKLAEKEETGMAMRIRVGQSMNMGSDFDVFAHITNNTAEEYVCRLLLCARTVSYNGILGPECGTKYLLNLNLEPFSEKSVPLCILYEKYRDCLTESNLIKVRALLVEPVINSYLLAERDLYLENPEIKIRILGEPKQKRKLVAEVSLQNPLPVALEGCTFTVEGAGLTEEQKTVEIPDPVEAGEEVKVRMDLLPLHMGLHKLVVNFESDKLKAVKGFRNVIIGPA
Assay: biochemical
Description: The ability of the compounds to inhibit TG2 transamidase activity and the kinetics of TG2 inhibition were investigated using a colorimetric activity assay, as follows:
Colorimetric transamidase activity assay. The activities of hTG1, hTG2 and hTG6 were measured via a colorimetric assay using the chromogenic substrate Cbz-Glu(γ-p-nitrophenyl ester)Gly (AL5), as described (Leblanc, A. et al., “Kinetic studies of guinea pig liver transglutaminase reveal a general-base-catalyzed deacylation mechanism.” Biochemistry 2001, 40 (28), 8335-8342). Assays were conducted at 25° C. in 50 mM MOPS buffer (pH 6.95) containing 7.5 mM CaCl2. […] The substrate AL5 was prepared in as a stock solution in DMSO such that the final concentration of this co-solvent was constant at 2.5% v/v. Stock solutions of the inhibitors were made in water ranging in concentration from 100-500 μM. The reaction was initiated with the addition of enzyme, 0.10 μM hTG1, 0.25 μM hTG2 (4.6 mU/mL) or 0.32 μM hTG6. Formation of hydrolysis product, p-nitrophenolate (pNP), was monitored at 405 nm in a polystyrene 96-well microplate using a BioTek Synergy 4 plate reader. The observed first-order rate constants of inactivation (kobs) were determined via non-linear regression fit to a mono-exponential model (Eqn 1) of absorbance versus time curves. These rate constants (kobs) were in turn fit to a saturation kinetics model (Eqn 2), by non-linear regression, providing the kinetic parameters kinact and KI, as previously described by Stone and Hofsteenge (Stone, S. R. and Hofsteenge, J., “Specificity of activated human protein C.” Biochem. J. 1985, 230 (2), 497-502). […] Experiments were completed in triplicate at minimum.
Fitting of this time-dependent inactivation to a monoexponential equation gave first-order rate constants, kobs. […] In some cases, the kinetic data were fitted to a linear double reciprocal equation.

[1] = values determined using a double-reciprocal analysis, read-out: KI (converted)
[2] = values determined using a double-reciprocal analysis, read-out: kinact (converted)
[3] = values determined using a double-reciprocal analysis, read-out: kinact/KI (converted)
[4] = fit to saturation kinetics model, 25° C., pH 6.95, 100 μM AL5, read-out: KI (converted)
[5] = fit to saturation kinetics model, 25° C., pH 6.95, 100 μM AL5, read-out: kinact (converted)
[6] = fit to saturation kinetics model, 25° C., pH 6.95, 100 μM AL5, read-out: kinact/KI (converted)

Structure (SMILES)	Ki [1] [µM]	Ki [4] [µM]	kinact [5] [s⁻¹]	kinact/KI [6] [M⁻¹ s⁻¹]	further results
C=CC(=O)NCCCC[C@H](NC(=O)c1ccccn1)C(=O)N1CCN(C(=O)c2cccc3ccccc23)CC1 [Inhibitor 18, (S)-N-(1-(4-(1-Naphthoyl)piperazin-1-yl)-6-acrylamido-1-oxohexan-2-yl)picolinamide]	41.4 ± 3.8				kinact [2]: 0.0065 s⁻¹; kinact/KI [3]: 160 M⁻¹ s⁻¹
C=CC(=O)NCCCC[C@H](NC(=O)c1cccnc1)C(=O)N1CCN(C(=O)c2cccc3ccccc23)CC1 [Inhibitor 19, (S)-N-(1-(4-(1-naphthoyl)piperazin-1-yl)-6-acrylamido-1-oxohexan-2-yl)nicotinamide]	25.4 ± 2.8				kinact [2]: 0.00983 s⁻¹; kinact/KI [3]: 388 M⁻¹ s⁻¹
C=CC(=O)NCCCC[C@H](NC(=O)c1ccncc1)C(=O)N1CCN(C(=O)c2cccc3ccccc23)CC1 [Inhibitor 20, (S)-N-(1-(4-(1-naphthoyl)piperazin-1-yl)-6-acrylamido-1-oxohexan-2-yl)isonicotinamide]	19.3 ± 4.3				kinact [2]: 0.004 s⁻¹; kinact/KI [3]: 212 M⁻¹ s⁻¹
C=CC(=O)NCCCC[C@H](NC(=O)c1nccn1C)C(=O)N1CCN(C(=O)c2cccc3ccccc23)CC1 [Inhibitor 21, (S)-N-(1-(4-(1-naphthoyl)piperazin-1-yl)-6-acrylamido-1-oxohexan-2-yl)-1-methyl-1H-imidazole-2-carboxamide]		15.7 ± 4.5	0.003	192	
C=CC(=O)NCCCC[C@H](NC(=O)c1cn(C)cn1)C(=O)N1CCN(C(=O)c2cccc3ccccc23)CC1 [Inhibitor 22, (S)-N-(1-(4-(1-naphthoyl)piperazin-1-yl)-6-acrylamido-1-oxohexan-2-yl)-1-methyl-1H-imidazole-4-carboxamide]		22.3 ± 5	0.00467	210	
C=CC(=O)NCCCC[C@H](NC(=O)C1C2CC3CC(C2)CC1C3)C(=O)N1CCN(C(=O)c2cccc3ccccc23)CC1 (stereo partly drawn) [Inhibitor 33, (1S,3S,5S,7S)-N-((S)-1-(4-(1-naphthoyl)piperazin-1-yl)-6-acrylamido-1-oxohexan-2-yl)adamantane-2-carboxamide]		15.3 ± 0.3	0.00383	248	
C=CC(=O)NCCCC[C@H](NC(=O)CC1CCCCC1)C(=O)N1CCN(C(=O)c2cccc3ccccc23)CC1 [Inhibitor 34, (S)-N-(6-(4-(1-naphthoyl)piperazin-1-yl)-5-(2-cyclohexylacetamido)-6-oxohexyl)acrylamide]		12.2 ± 2.4	0.00433	348	
C=CC(=O)NCCCC[C@H](NC(=O)C1CCCCC1)C(=O)N1CCN(C(=O)c2cccc3ccccc23)CC1 [Inhibitor 35, (S)-N-(1-(4-(1-naphthoyl)piperazin-1-yl)-6-acrylamido-1-oxohexan-2-yl)cyclohexanecarboxamide]		9.9 ± 1.3	0.0055	560	
C=CC(=O)NCCCC[C@H](NC(=O)C1CC1)C(=O)N1CCN(C(=O)c2cccc3ccccc23)CC1 [Inhibitor 36, (S)-N-(1-(4-(1-naphthoyl)piperazin-1-yl)-6-acrylamido-1-oxohexan-2-yl)cyclopropanecarboxamide]		10.6 ± 3.6	0.017	1610	
C=CC(=O)NCCCC[C@H](NC(=O)C(C)(C)C)C(=O)N1CCN(C(=O)c2cccc3ccccc23)CC1 [Inhibitor 37, (S)-N-(6-(4-(1-naphthoyl)piperazin-1-yl)-6-oxo-5-pivalamidohexyl)acrylamide]		8.8 ± 3.6	0.00817	937	
C=CC(=O)NCCCC[C@H](NC(=O)CC(C)C)C(=O)N1CCN(C(=O)c2cccc3ccccc23)CC1 [Inhibitor 38, (S)-N-(1-(4-(1-naphthoyl)piperazin-1-yl)-6-acrylamido-1-oxohexan-2-yl)-3-methylbutanamide]		9.7 ± 1.9	0.0107	1110	
C=CC(=O)NCCCC[C@H](NC(=O)C(C)C)C(=O)N1CCN(C(=O)c2cccc3ccccc23)CC1 [Inhibitor 39, (S)-N-(6-(4-(1-naphthoyl)piperazin-1-yl)-5-isobutyramido-6-oxohexyl)acrylamide]		9.9 ± 1.4	0.0108	1080	
C=CC(=O)NCCCC[C@H](NC(=O)CC)C(=O)N1CCN(C(=O)c2cccc3ccccc23)CC1 [Inhibitor 40, (S)-N-(6-(4-(1-naphthoyl)piperazin-1-yl)-6-oxo-5-propionamidohexyl)acrylamide]		5.1 ± 1	0.00883	1720	
C=CC(=O)NCCCC[C@H](NC(C)=O)C(=O)N1CCN(C(=O)c2cccc3ccccc23)CC1 [Inhibitor 41, (S)-N-(6-(4-(1-naphthoyl)piperazin-1-yl)-5-acetamido-6-oxohexyl)acrylamide]	33 ± 14.5				kinact: 0.0242 s⁻¹; kinact/KI: 735 M⁻¹ s⁻¹
C=CC(=O)NCCCC[C@H](NC(=O)c1ccccc1)C(=O)N1CCN(C(=O)c2cccc3ccccc23)CC1 [Inhibitor 61, (S)-N-(1-(4-(1-naphthoyl)piperazin-1-yl)-6-acrylamido-1-oxohexan-2-yl)benzamide]	12	27.6 ± 8.1			kinact: 0.0118 s⁻¹; kinact/KI: 983 M⁻¹ s⁻¹; kinact/KI (pH 6.95): 807 M⁻¹ s⁻¹
C=CC(=O)NCCCC[C@H](NC(=O)c1ccccc1F)C(=O)N1CCN(C(=O)c2cccc3ccccc23)CC1 [Inhibitor 62, (S)-N-(1-(4-(1-naphthoyl)piperazin-1-yl)-6-acrylamido-1-oxohexan-2-yl)-2-fluorobenzamide]		10 ± 2.6	0.0065	657	
C=CC(=O)NCCCC[C@H](NC(=O)c1cccc(F)c1)C(=O)N1CCN(C(=O)c2cccc3ccccc23)CC1 [Inhibitor 63, (S)-N-(1-(4-(1-naphthoyl)piperazin-1-yl)-6-acrylamido-1-oxohexan-2-yl)-3-fluorobenzamide]	9.9	13.4 ± 3.5	0.0107	797	kinact [2]: 0.0085 s⁻¹; kinact/KI [3]: 860 M⁻¹ s⁻¹
C=CC(=O)NCCCC[C@H](NC(=O)c1ccc(F)cc1)C(=O)N1CCN(C(=O)c2cccc3ccccc23)CC1 [Inhibitor 64, (S)-N-(1-(4-(1-naphthoyl)piperazin-1-yl)-6-acrylamido-1-oxohexan-2-yl)-4-fluorobenzamide]	11.6	16.2 ± 7.5	0.015	923	kinact [2]: 0.0117 s⁻¹; kinact/KI [3]: 1010 M⁻¹ s⁻¹
C=CC(=O)NCCCC[C@H](NC(=O)c1ccc2ccccc2c1)C(=O)N1CCN(C(=O)c2cccc3ccccc23)CC1 [Inhibitor 65, (S)-N-(1-(4-(1-naphthoyl)piperazin-1-yl)-6-acrylamido-1-oxohexan-2-yl)-2-naphthamide]		8 ± 1.8	0.00483	608	
C=CC(=O)NCCCC[C@H](NC(=O)c1cccc2ccccc12)C(=O)N1CCN(C(=O)c2cccc3ccccc23)CC1 [Inhibitor 66, (S)-N-(1-(4-(1-naphthoyl)piperazin-1-yl)-6-acrylamido-1-oxohexan-2-yl)-1-naphthamide]		20.3 ± 5.1			Ki: 9.3 µM; kinact: 0.00433 s⁻¹; kinact/KI: 458 M⁻¹ s⁻¹; kinact/KI (pH 6.95): 335 M⁻¹ s⁻¹
C=CC(=O)NCCCC[C@H](NC(=O)CCc1ccccc1)C(=O)N1CCN(C(=O)c2cccc3ccccc23)CC1 [Inhibitor 68, (S)-N-(6-(4-(1-naphthoyl)piperazin-1-yl)-6-oxo-5-(3-phenylpropanamido)hexyl)acrylamide]		2.8 ± 0.3	0.01	3570	
